Laboratory results from patent US6562782B1, “Oligocycloalkanoid compounds and methods of use” (University of Rochester, priority 1999, dated 2003).

Experiment: UV titration of ter-cyclopentane tetra-amino acid derivatives with lipid A
Type: binding, Salmonella minnesota
Conditions: for binding to lipid A in UV titration, in words: aqueous solution, concentrations below the cmc of lipid A / >20 micromolar in lipid A
Procedure: A 600 microliter, 0.9 μM solution of the ter-cyclopentane tetra-amino acid derivative in water (pH=5.0) or phosphate-buffered saline (PBS, pH=7.4) was allowed to equilibrate in a 1.0-ml masked wall UV cell at ambient temperature (22° C.), in a Shimadzu 1600-PC UV spectrophotometer. […] After each addition, the solution was allowed to equilibrate for a minimum of 5 minutes, then scanned for absorbance 550-220 nm.

Compound	lipid A binding affinity compared with polymyxins	binding to lipid A in UV titration, in words
NC(Cc1c[nH]c2ccccc12)C(=O)OCC1CC(COC(=O)C(N)Cc2c[nH]c3ccccc23)C(C2CCC(C3C(COC(=O)C(N)Cc4c[nH]c5ccccc45)CC(COC(=O)C(N)Cc4c[nH]c5ccccc45)C3COC(=O)c3ccccc3)C2)C1COC(=O)c1ccccc1 (mixture of isomers) [Compound 7.3, tetra-tryptophaninate ter-cyclopentane]	greater than the binding affinity of polymyxins	–
NCC(=O)OCC1CC(COC(=O)CN)C(C2CCC(C3C(COC(=O)CN)CC(COC(=O)CN)C3COC(=O)c3ccccc3)C2)C1COC(=O)c1ccccc1 (stereo not shown) [Compound 7.1, tetra-glycinate ter-cyclopentane]	–	saturation point for binding of lipid A to 7.1 was not reached
COC(=O)[C@@H](N)Cc1c[nH]c2ccccc12 [Compound H2N-Trp-OCH3, tryptophan methyl-ester, reference compound]	–	not saturatable at the concentrations tested
tetra-phenylalaninate ter-cyclopentane [Compound 7.2]	–	reasonable affinity
